Test results from patent US6596755B2 (Dabur Research Foundation, priority 2001, dated 2003).

Legend:
U87MG Glioblastoma = experiment: three day MTT cytotoxicity assay, U87MG; assay type: cell-based, human; conditions: Standard (DMSO control), 72 hours
Procedure: (§1) Briefly, a three day MTT cytotoxicity assay was performed, which is based on the principle of uptake of MTT (3-(4,5-dimethylthiazol-2-yl)-2,5-diphenyl tetrazolium bromide), a tetrazolium salt, by the metabolically active cells where it is metabolized by active mitochondria into a blue colored formazan product that is read spectrophoto-metrically. MTT was dissolved in phosphate buffered saline with a pH of 7.4 to obtain an MTT concentration of 5 mg/ml; the resulting mixture was filtered through a 0.22 micron filter to sterilize and remove a small amount of insoluble residue. For each type of tumor cell, 20,000 to 50,000 cells were seeded in a 96-well culture plate and incubated with the formulation or standard in a CO2 incubator for […]. […] The assay was terminated after 72 hours by adding 100 ug (20 ul) of MTT to each well, then incubating for additional one hour, and finally adding 50 ul of 10% SDS-0.01N HCl to each well to lyse the cells and dissolve formazan. After incubating for one hour, the plate was read spectrophoto-metrically at 540 nm and the percentage cytotoxicity calculated.

KB Oral = experiment: three day MTT cytotoxicity assay, KB; assay type: cell-based, human; conditions: Standard (DMSO control), 72 hours
Procedure: as §1

PTC Colon = experiment: three day MTT cytotoxicity assay, PTC; assay type: cell-based, human; conditions: Standard (DMSO control), 72 hours
Procedure: as §1

DU145 Prostate = experiment: three day MTT cytotoxicity assay, DU145; assay type: cell-based, human; conditions: Standard (DMSO control), 72 hours
Procedure: as §1

Miapaca2 Pancreas = experiment: three day MTT cytotoxicity assay, Miapaca2; assay type: cell-based, human; conditions: Standard (DMSO control), 72 hours
Procedure: as §1

L132 Lung = experiment: three day MTT cytotoxicity assay, L132; assay type: cell-based, human; conditions: Standard (DMSO control), 72 hours
Procedure: as §1

Molt 4 Leukemia = experiment: three day MTT cytotoxicity assay, Molt 4; assay type: cell-based, human; conditions: Standard (DMSO control), 72 hours
Procedure: as §1

sarcoma 180 cells = conditions: injected into mice along with sarcoma 180 cells; cited from earlier work
sarcoma tumor = conditions: in vivo; cited from earlier work

| Structure (SMILES) | ED50 of cytotoxicity (U87MG Glioblastoma) | ED50 of cytotoxicity (KB Oral) | ED50 of cytotoxicity (PTC Colon) | ED50 of cytotoxicity (DU145 Prostate) | ED50 of cytotoxicity (Miapaca2 Pancreas) | ED50 of cytotoxicity (L132 Lung) | ED50 of cytotoxicity (Molt 4 Leukemia) | tumor development (sarcoma 180 cells) | sarcoma tumor growth (sarcoma tumor) |
| --- | --- | --- | --- | --- | --- | --- | --- | --- | --- |
| COC(=O)C1CCC(=O)N1C(O)C(C)=O (centres unmarked) [MGC1] | 2250 ± 500 µM | 1700 ± 500 µM | 3700 ± 1400 µM | 1700 ± 600 µM | 4200 ± 1300 µM | >5000 µM | 1500 ± 400 µM |  |  |
| CCOC(=O)C1CCC(=O)N1C(O)C(C)=O (centres unmarked) [MGC4] | 2400 ± 500 µM | 1550 ± 300 µM | 3800 ± 1100 µM | 1800 ± 300 µM | 4200 ± 1100 µM | >5000 µM | 1500 ± 200 µM |  |  |
| CC(=O)OC(C(C)=O)N1C(=O)CCC1C(=O)OCc1ccccc1 (centres unmarked) [MGC7] | 1840 ± 600 µM | 1850 ± 600 µM | 2400 ± 500 µM | 850 ± 300 µM | 2400 ± 1000 µM | >5000 µM | 1500 ± 200 µM |  |  |
| CC(=O)C=O [Methylglyoxal, 2-oxopropanal] |  |  |  |  |  |  |  | no tumor developed | significantly inhibited |
